Data: US11472799B2, “Serine threonine kinase (AKT) degradation / disruption compounds and methods of use” (Icahn School of Medicine at Mount Sinai, priority 2018, dated 2022)

System: AKT
Experiment: Western blot of AKT protein levels and downstream signaling in BT474 cells
Assay type: cell-based, human
Conditions: Western blot (FIGS. 1, 3, 4)
Description: PC-3, U87MG, HCC1143, MDA-MB-231, MDA-MB-468, BT474 and MCF-7 cell lines were purchased from ATCC. Cell lines were regularly tested in the lab for mycoplasma. All cells were cultured at 37° C. and 5% CO2. PC-3, U87MG, MDA-MB-231, MCF-7 and BT474 cells were cultured in 1×DMEM (Corning, 10-013-CV) with 10% fetal bovine serum (Atlanta Biologicals S11150) and 1× Penicillin/Streptomycin. HCC1143 cells were cultured in RPMI (Corning, 10-040-CV) medium with 10% fetal bovine serum (Atlanta Biologicals S11150) and 1× Penicillin/Streptomycin. Cells were split using 0.05% or 0.25% trypsin (Corning 25-051-Cl or 25-053-Cl, respectively) before they reached full confluence and media was changed every 3-4 days. Cells were treated with compounds individually at different concentrations for 24 hrs. Cells were treated with DMSO, VHL, or PML alone as controls.
Cells were lysed in 2× sample buffer (125 mM Tris-HCl at pH 6.8, 10% βME, 2% SDS, 20% glycerol, 0.05% Bromophenol Blue, 8 M urea). Protein lysates were loaded into 4-12% Bis-Tris gels and resolved by electrophoresis. Samples were then blotted on PVDF membrane (Millipore IPVH00010) using the wet transfer technique (Invitrogen). Membranes were blocked in 5% milk-TBST for 1 hour, washed in TBST for 10 min, and incubated in primary antibody in 5% milk-TBST or 5% BSA-TBST at 4° C. for 16 h. Membranes were rinsed (3×6 min) in TBST and incubated in horseradish peroxidase-conjugated secondary antibodies in 5% milk-TBST for 1 hour and rinsed again in TBST (3×6 min). Membranes were visualized using the chemiluminescence system (Thermo 34080, 37075) on autoradiography film (Denville E3018). Primary Antibodies: R-actin (Sigma A5316), p-AKT (Ser473 CST-9721), total AKT (CST-9272), p-S6 (Ser240/244, CST-5364), p-PRAS40 (Thr246, CST-2997). Secondary Antibodies: Mouse (Thermo 31432), Rabbit (Thermo 31460).

| SMILES | suppression of AKT protein level and AKT activity |
| --- | --- |
| Cc1ncsc1-c1ccc(CNC(=O)[C@@H]2C[C@@H](O)CN2C(=O)[C@@H](NC(=O)COCCOCC(=O)N2CCN(CC[C@H](NC(=O)C3(N)CCN(c4ncnc5[nH]ccc45)CC3)c3ccc(Cl)cc3)CC2)C(C)(C)C)cc1 [XF050-7, 4-amino-N-((S)-1-(4-chlorophenyl)-3-(4-(2-(2-(2-(((S)-1-((2S,4R)-4-hydroxy-2-((4-(4-methylthiazol-5-yl)benzyl)carbamoyl)pyrrolidin-1-yl)-3,3-dimethyl-1-oxobutan-2-yl)amino)-2-oxoethoxy)ethoxy)acetyl)piperazin-1-yl)propyl)-1-(7H-pyrrolo[2,3-d]pyrimidin-4-yl)piperidine-4-carboxamide] | effective in suppressing both AKT protein level and AKT activity |
| Cc1ncsc1-c1ccc(CNC(=O)[C@@H]2C[C@@H](O)CN2C(=O)[C@@H](NC(=O)CCCCC(=O)N2CCN(CC[C@H](NC(=O)C3(N)CCN(c4ncnc5[nH]ccc45)CC3)c3ccc(Cl)cc3)CC2)C(C)(C)C)cc1 [XF050-16, 4-amino-N-((S)-1-(4-chlorophenyl)-3-(4-(6-(((S)-1-((2S,4R)-4-hydroxy-2-((4-(4-methylthiazol-5-yl)benzyl)carbamoyl)pyrrolidin-1-yl)-3,3-dimethyl-1-oxobutan-2-yl)amino)-6-oxohexanoyl)piperazin-1-yl)propyl)-1-(7H-pyrrolo[2,3-d]pyrimidin-4-yl)piperidine-4-carboxamide] | effective in suppressing both AKT protein level and AKT activity |
| Cc1ncsc1-c1ccc(CNC(=O)[C@@H]2C[C@@H](O)CN2C(=O)[C@@H](NC(=O)CCCCCC(=O)N2CCN(CC[C@H](NC(=O)C3(N)CCN(c4ncnc5[nH]ccc45)CC3)c3ccc(Cl)cc3)CC2)C(C)(C)C)cc1 [XF050-17, 4-amino-N-((S)-1-(4-chlorophenyl)-3-(4-(7-(((S)-1-((2S,4R)-4-hydroxy-2-((4-(4-methylthiazol-5-yl)benzyl)carbamoyl)pyrrolidin-1-yl)-3,3-dimethyl-1-oxobutan-2-yl)amino)-7-oxoheptanoyl)piperazin-1-yl)propyl)-1-(7H-pyrrolo[2,3-d]pyrimidin-4-yl)piperidine-4-carboxamide] | effective in suppressing both AKT protein level and AKT activity |
| Cc1ncsc1-c1ccc(CNC(=O)[C@@H]2C[C@@H](O)CN2C(=O)[C@@H](NC(=O)CCCCCCC(=O)N2CCN(CC[C@H](NC(=O)C3(N)CCN(c4ncnc5[nH]ccc45)CC3)c3ccc(Cl)cc3)CC2)C(C)(C)C)cc1 [XF050-18, 4-amino-N-((S)-1-(4-chlorophenyl)-3-(4-(8-(((S)-1-((2S,4R)-4-hydroxy-2-((4-(4-methylthiazol-5-yl)benzyl)carbamoyl)pyrrolidin-1-yl)-3,3-dimethyl-1-oxobutan-2-yl)amino)-8-oxooctanoyl)piperazin-1-yl)propyl)-1-(7H-pyrrolo[2,3-d]pyrimidin-4-yl)piperidine-4-carboxamide] | effective in suppressing both AKT protein level and AKT activity |
| Cc1ncsc1-c1ccc(CNC(=O)[C@@H]2C[C@@H](O)CN2C(=O)[C@@H](NC(=O)CCCCCCCC(=O)N2CCN(CC[C@H](NC(=O)C3(N)CCN(c4ncnc5[nH]ccc45)CC3)c3ccc(Cl)cc3)CC2)C(C)(C)C)cc1 [XF050-19, 4-amino-N-((S)-1-(4-chlorophenyl)-3-(4-(9-(((S)-1-((2S,4R)-4-hydroxy-2-((4-(4-methylthiazol-5-yl)benzyl)carbamoyl)pyrrolidin-1-yl)-3,3-dimethyl-1-oxobutan-2-yl)amino)-9-oxononanoyl)piperazin-1-yl)propyl)-1-(7H-pyrrolo[2,3-d]pyrimidin-4-yl)piperidine-4-carboxamide] | effective in suppressing both AKT protein level and AKT activity |
| Cc1ncsc1-c1ccc(CNC(=O)[C@@H]2C[C@@H](O)CN2C(=O)[C@@H](NC(=O)CCCCCCCCC(=O)N2CCN(CC[C@H](NC(=O)C3(N)CCN(c4ncnc5[nH]ccc45)CC3)c3ccc(Cl)cc3)CC2)C(C)(C)C)cc1 [XF050-20, 4-amino-N-((S)-1-(4-chlorophenyl)-3-(4-(10-(((S)-1-((2S,4R)-4-hydroxy-2-((4-(4-methylthiazol-5-yl)benzyl)carbamoyl)pyrrolidin-1-yl)-3,3-dimethyl-1-oxobutan-2-yl)amino)-10-oxodecanoyl)piperazin-1-yl)propyl)-1-(7H-pyrrolo[2,3-d]pyrimidin-4-yl)piperidine-4-carboxamide] | effective in suppressing both AKT protein level and AKT activity |
| NC1(C(=O)N[C@@H](CCN2CCN(C(=O)CCOCCOCCNc3cccc4c3C(=O)N(C3CCC(=O)NC3=O)C4=O)CC2)c2ccc(Cl)cc2)CCN(c2ncnc3[nH]ccc23)CC1 (stereo partly drawn) [XF050-30, 4-amino-N-((1S)-1-(4-chlorophenyl)-3-(4-(3-(2-(2-((2-(2,6-dioxopiperidin-3-yl)-1,3-dioxoisoindolin-4-yl)amino)ethoxy)ethoxy)propanoyl)piperazin-1-yl)propyl)-1-(7H-pyrrolo[2,3-d]pyrimidin-4-yl)piperidine-4-carboxamide] | effective in suppressing both AKT protein level and AKT activity |
| NC1(C(=O)N[C@@H](CCN2CCN(C(=O)CCOCCOCCOCCNc3cccc4c3C(=O)N(C3CCC(=O)NC3=O)C4=O)CC2)c2ccc(Cl)cc2)CCN(c2ncnc3[nH]ccc23)CC1 (stereo partly drawn) [XF050-31, 4-amino-N-((1S)-1-(4-chlorophenyl)-3-(4-(3-(2-(2-(2-((2-(2,6-dioxopiperidin-3-yl)-1,3-dioxoisoindolin-4-yl)amino)ethoxy)ethoxy)ethoxy)propanoyl)piperazin-1-yl)propyl)-1-(7H-pyrrolo[2,3-d]pyrimidin-4-yl)piperidine-4-carboxamide] | effective in suppressing both AKT protein level and AKT activity |
| NC1(C(=O)N[C@@H](CCN2CCN(C(=O)CCOCCOCCOCCOCCNc3cccc4c3C(=O)N(C3CCC(=O)NC3=O)C4=O)CC2)c2ccc(Cl)cc2)CCN(c2ncnc3[nH]ccc23)CC1 (stereo partly drawn) [XF050-32, 4-amino-N-((1S)-1-(4-chlorophenyl)-3-(4-(1-((2-(2,6-dioxopiperidin-3-yl)-1,3-dioxoisoindolin-4-yl)amino)-3,6,9,12-tetraoxapentadecan-15-oyl)piperazin-1-yl)propyl)-1-(7H-pyrrolo[2,3-d]pyrimidin-4-yl)piperidine-4-carboxamide] | effective in suppressing both AKT protein level and AKT activity |
| C[C@@H]1C[C@@H](O)c2ncnc(N3CCN(C(=O)[C@H](CNCCC(=O)NCCCCCCCCOc4cccc5c4C(=O)N(C4CCC(=O)NC4=O)C5=O)c4ccc(Cl)cc4)CC3)c21 (stereo partly drawn) [XF050-133, 3-(((S)-2-(4-chlorophenyl)-3-(4-((5R,7R)-7-hydroxy-5-methyl-6,7-dihydro-5H-cyclopenta[d]pyrimidin-4-yl)piperazin-1-yl)-3-oxopropyl)amino)-N-(8-((2-(2,6-dioxopiperidin-3-yl)-1,3-dioxoisoindolin-4-yl)oxy)octyl)propanamide] | effective in suppressing both AKT protein level and AKT activity |
